Assay [1] addresses T1, human leukocytic elastase (HLE) (Homo sapiens, UniProt P08246).
T1 sequence (P08246 30-267): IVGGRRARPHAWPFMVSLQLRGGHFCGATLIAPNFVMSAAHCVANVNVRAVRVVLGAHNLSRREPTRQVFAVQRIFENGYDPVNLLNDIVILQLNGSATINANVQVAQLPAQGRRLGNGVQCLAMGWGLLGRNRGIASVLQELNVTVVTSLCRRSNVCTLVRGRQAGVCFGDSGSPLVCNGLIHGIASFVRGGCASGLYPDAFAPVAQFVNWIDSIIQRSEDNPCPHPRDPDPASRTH
Description: anti-elastase test: spectrophotometric hydrolysis of N-methoxysuccinyl-alanine-proline-valine-para-nitroanilide at 410 nm. The format is biochemical. Conditions: test concentration 0.001% palmitoylproline alone; 25° C.
Description: The reaction is carried out in a spectrophotometer, thermostatically maintained at 25° C., fitted with a sample changer. All the kinetics are carried out at least three times, the average and the standard deviation then being calculated for the three values obtained. […] A correlation thus exists between the percentage of inhibition of the formation of the coloured product by the test compound and the percentage of inhibition of human leukocytic elastase. The percentage of inhibition thus calculated is also representative of the calmant activity of the test compound.

A short description of assay [2]: anti-free-radical test: xanthine oxidase/xanthine, rate of reduction of cytochrome C at 550 nm. The class given is biochemical. The settings on record: test concentration 0.0062% palmitoylproline alone; 25° C.
Description: The determination of the anti-free-radical effect is based on the inhibition or the decrease in the rate of reduction of cytochrome C, by adding a test molecule to the reaction medium. The superoxide anion is generated by the action of xanthine oxidase on xanthine. In the absence of a molecule capable of capturing it, it results in the reduction of cytochrome C. The formation of reduced cytochrome C is monitored by a spectrophotometer, at 550 nm in the presence (Test) and in the absence (Control) of anti-free-radical molecules.
The reaction takes place in a spectrophotometer thermostatically adjusted to 25° C. and fitted with a sample changer. All of the kinetics are carried out at least three times; the average and the standard deviation are calculated for the three values obtained. A percentage of inhibition of the rate of formation of the coloured product (corresponding to the amount of free superoxide anion) will thus be calculated for each active agent tested. […] The percentage of inhibition of the formation of the coloured product by the active agent will thus correspond to its percentage of inhibition of the superoxide anion.

As for `CCCCCCCCCCCCCCCC(=O)N1CCC[C@H]1C(=O)O` [Palmitoylproline, N-palmitoylproline], the “% of anti-elastase inhibition” value in assay [1] was found to be 22%. Moreover, the “% of anti-free-radical inhibition” value in assay [2] came out at 38%.

The record behind these values is patent US6296859A, “Synergistic composition comprising a compound of lipoamino acid structure and a water lily extract” (Societe d'Exploitation de Produits pour les Industries …, priority 1998, dated 2001).
